Assay results from patent publication US9409866B2, “Pyridine-2-amides useful as CB2 agonists” (Hoffmann-La Roche Inc., priority 2012, dated 2016).
Read-outs that look alike come from different tables or passages of the source.

Tests used:
[1] = target: human CB1 receptors (Homo sapiens (Human), UniProt P21554); experiment: functional cAMP assay, CHO cells expressing human CB1; type: cell-based
Procedure, shortened: (§1)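 Compound exposure lasted 30 min at 30 °C in IBMX (1 mM)-containing Krebs Ringer bicarbonate buffer, applied to human CB1- or CB2-expressing CHO cells. Lysates were read by time-resolved FRET cAMP detection, converted via cAMP standard curve (10 μM–0.13 nM), and EC50 values calculated.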

[2] = target: human CB2 receptors (Homo sapiens (Human), UniProt P34972); experiment: functional cAMP assay, CHO cells expressing human CB2; type: cell-based
human CB2 receptors, sequence (P34972 whole entry): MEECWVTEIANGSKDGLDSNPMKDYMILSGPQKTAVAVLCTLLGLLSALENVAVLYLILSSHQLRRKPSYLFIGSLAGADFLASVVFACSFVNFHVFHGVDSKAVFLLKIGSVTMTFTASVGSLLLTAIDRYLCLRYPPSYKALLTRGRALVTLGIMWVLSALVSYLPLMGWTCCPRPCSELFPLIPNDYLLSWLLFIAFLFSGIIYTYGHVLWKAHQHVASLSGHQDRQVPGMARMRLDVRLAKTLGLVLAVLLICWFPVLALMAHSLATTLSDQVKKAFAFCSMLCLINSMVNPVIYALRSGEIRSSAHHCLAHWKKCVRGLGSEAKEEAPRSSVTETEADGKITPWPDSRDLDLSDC
Procedure, shortened: as §1

[3] = read-out: Human CB1 EC50; functional cAMP assay, CHO cells expressing human CB1
[4] = Human CB1 EC50 (uM), functional cAMP assay, CHO cells expressing human CB1
[5] = functional cAMP assay, CHO cells expressing human CB1; read-out: Human CB1 EC50

human CB1 receptors, sequence (P21554 whole entry): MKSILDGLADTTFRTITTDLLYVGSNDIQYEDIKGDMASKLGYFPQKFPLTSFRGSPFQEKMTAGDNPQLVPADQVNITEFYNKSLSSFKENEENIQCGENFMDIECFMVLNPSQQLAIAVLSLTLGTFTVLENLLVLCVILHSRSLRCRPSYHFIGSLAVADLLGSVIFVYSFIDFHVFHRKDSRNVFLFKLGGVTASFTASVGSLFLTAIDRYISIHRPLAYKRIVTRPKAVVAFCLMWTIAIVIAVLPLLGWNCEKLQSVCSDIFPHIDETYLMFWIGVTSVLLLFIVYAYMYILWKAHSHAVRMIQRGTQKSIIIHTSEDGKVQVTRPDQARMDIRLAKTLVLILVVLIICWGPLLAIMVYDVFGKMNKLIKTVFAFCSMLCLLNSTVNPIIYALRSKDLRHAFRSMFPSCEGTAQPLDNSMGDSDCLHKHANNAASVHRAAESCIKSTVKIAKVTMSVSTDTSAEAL

Row | SMILES | EC50 [1, 3] | EC50 ([2]; read-out: Human CB2 EC50) | EC50 [1, 4] | EC50 ([2]; Human CB2 EC50 (uM)) | EC50 [1, 5]
1 | Cc1nc(C(C)(CS(C)(=O)=O)NC(=O)c2cc(OC(C)CF)c(C3CC3)cn2)no1 (single isomer, unassigned) [Example 297, 5-cyclopropyl-4-(1-fluoropropan-2-yloxy)-N-(2-(5-methyl-1,2,4-oxadiazol-3-yl)-1-(methylsulfonyl)propan-2-yl)picolinamide] | > 10 µM | 0.0032 µM | – | – | –
2 | Cc1nc(C(C)(CS(C)(=O)=O)NC(=O)c2cc(OC(C)CF)c(C3CC3)cn2)no1 (single isomer, unassigned) [Example 298, 5-cyclopropyl-4-(1-fluoropropan-2-yloxy)-N-(2-(5-methyl-1,2,4-oxadiazol-3-yl)-1-(methylsulfonyl)propan-2-yl)picolinamide] | > 10 µM | 0.0579 µM | – | – | –
3 | CC(CF)Oc1cc(C(=O)NC(C)(CC(N)=O)C2CC2)ncc1C1CC1 (single isomer, unassigned) [Example 301, N-(4-amino-2-cyclopropyl-4-oxobutan-2-yl)-5-cyclopropyl-4-(1-fluoropropan-2-yloxy)picolinamide] | – | – | > 10 µM | 0.0304 µM | –
4 | CC(CF)Oc1cc(C(=O)NC(C)(CC(N)=O)C2CC2)ncc1C1CC1 (single isomer, unassigned) [Example 302, N-(4-amino-2-cyclopropyl-4-oxobutan-2-yl)-5-cyclopropyl-4-(1-fluoropropan-2-yloxy)picolinamide] | – | – | 0.869 µM | 0.001 µM | –
5 | CC(CF)Oc1cc(C(=O)NC(C)(CC(N)=O)C2CC2)ncc1C1CC1 (single isomer, unassigned) [Example 303, N-(4-amino-2-cyclopropyl-4-oxobutan-2-yl)-5-cyclopropyl-4-(1-fluoropropan-2-yloxy)picolinamide] | – | 0.0485 µM | – | – | > 10 µM
6 | CC(CF)Oc1cc(C(=O)NC(C)(CC(N)=O)C2CC2)ncc1C1CC1 (single isomer, unassigned) [Example 304, N-(4-amino-2-cyclopropyl-4-oxobutan-2-yl)-5-cyclopropyl-4-(1-fluoropropan-2-yloxy)picolinamide] | – | 0.0021 µM | – | – | 0.82 µM
7 | Cc1nc(C(C)(NC(=O)c2cc(OCC(F)(F)F)c(C3(F)CCC3)cn2)C2CC2)no1 (single isomer, unassigned) [Example 306, N-(1-cyclopropyl-1-(5-methyl-1,2,4-oxadiazol-3-yl)ethyl)-5-(1-fluorocyclobutyl)-4-(2,2,2-trifluoroethoxy)picolinamide] | – | – | > 10 µM | 0.0118 µM | –
8 | Cc1nc(C(C)(NC(=O)c2cc(OCC(F)(F)F)c(C3(F)CCC3)cn2)C2CC2)no1 (single isomer, unassigned) [Example 307, N-(1-cyclopropyl-1-(5-methyl-1,2,4-oxadiazol-3-yl)ethyl)-5-(1-fluorocyclobutyl)-4-(2,2,2-trifluoroethoxy)picolinamide] | – | – | 0.032 µM | 0.0034 µM | –
9 | CC(CC(N)=O)(NC(=O)c1cc(OCC(F)(F)F)c(C2(F)CCC2)cn1)C1CC1 (single isomer, unassigned) [Example 309, N-[4-amino-2-cyclopropyl-4-oxobutan-2-yl]-5-(1-fluorocyclobutyl)-4-(2,2,2-trifluoroethoxy)pyridine-2-carboxamide] | – | – | 0.475 µM | 0.002 µM | –
10 | CC(CC(N)=O)(NC(=O)c1cc(OCC(F)(F)F)c(C2(F)CCC2)cn1)C1CC1 (single isomer, unassigned) [Example 310, N-[4-amino-2-cyclopropyl-4-oxobutan-2-yl]-5-(1-fluorocyclobutyl)-4-(2,2,2-trifluoroethoxy)pyridine-2-carboxamide] | – | – | 2.44 µM | 0.0154 µM | –
11 | Cc1nc([C@@](C)(NC(=O)c2cc(OCC(F)(F)F)c(C3CC3)cn2)C2CC2)no1 (single isomer, unassigned; enantiomer a) [Example 61, 5-Cyclopropyl-4-(2,2,2-trifluoro-ethoxy)-pyridine-2-carboxylic acid [1-cyclopropyl-1-(5-methyl-[1,2,4]oxadiazol-3-yl)-ethyl]-amide (enantiomer A)] | – | – | > 10 µM | 0.0276 µM | –
12 | CC(C)C[C@H](CC(N)=O)NC(=O)c1cc(OCC(F)(F)F)c(C2CC2)cn1 (single isomer, unassigned; enantiomer a) [Example 65, 5-Cyclopropyl-4-(2,2,2-trifluoro-ethoxy)-pyridine-2-carboxylic acid (1-carbamoylmethyl-3-methyl-butyl)-amide (enantiomer A)] | – | – | > 10 µM | 0.027 µM | –
13 | Cc1nc(C(C)(CC2CC2)NC(=O)c2cc(OCC(F)(F)F)c(C3CC3)cn2)no1 (single isomer, unassigned; enantiomer a) [Example 66, 5-Cyclopropyl-4-(2,2,2-trifluoro-ethoxy)-pyridine-2-carboxylic acid [2-cyclopropyl-1-methyl-1-(5-methyl-[1,2,4]oxadiazol-3-yl)-ethyl]-amide (enantiomer A)] | – | – | > 10 µM | 0.00595 µM | –
14 | Cc1nc([C@](C)(NC(=O)c2cc(OCC(F)(F)F)c(Cl)cn2)C2CC2)no1 (single isomer, unassigned; enantiomer a) [Example 74, 5-Chloro-4-(2,2,2-trifluoro-ethoxy)-pyridine-2-carboxylic acid [1-cyclopropyl-1-(5-methyl-[1,2,4]oxadiazol-3-yl)-ethyl]-amide (enantiomer A)] | – | – | > 10 µM | 0.0133 µM | –
15 | Cc1nc([C@](C)(NC(=O)c2cc(OCC(F)(F)F)c(N3CC(F)(F)C3)cn2)C2CC2)no1 (single isomer, unassigned; enantiomer a) [Example 87, 5-(3,3-Difluoro-azetidin-1-yl)-4-(2,2,2-trifluoro-ethoxy)-pyridine-2-carboxylic acid [1-cyclopropyl-1-(5-methyl-[1,2,4]oxadiazol-3-yl)-ethyl]-amide (enantiomer A)] | – | – | > 10 µM | 0.0568 µM | –
16 | Cc1nc([C@](C)(CC2CC2)NC(=O)c2cc(OCC(F)(F)F)c(C3CC3)cn2)no1 (single isomer, unassigned; enantiomer b) [Example 67, 5-Cyclopropyl-4-(2,2,2-trifluoro-ethoxy)-pyridine-2-carboxylic acid [2-cyclopropyl-1-methyl-1-(5-methyl-[1,2,4]oxadiazol-3-yl)-ethyl]-amide (enantiomer B)] | – | – | 5.28 µM | 0.0037 µM | –
17 | Cc1nc([C@@](C)(NC(=O)c2cc(OCC(F)(F)F)c(Cl)cn2)C2CC2)no1 (single isomer, unassigned; enantiomer b) [Example 75, 5-Chloro-4-(2,2,2-trifluoro-ethoxy)-pyridine-2-carboxylic acid [1-cyclopropyl-1-(5-methyl-[1,2,4]oxadiazol-3-yl)-ethyl]-amide (enantiomer B)] | – | – | > 10 µM | 0.11 µM | –
18 | Cc1nc(C(C)(NC(=O)c2cc(O[C@@H](C)C(F)(F)F)c(C3CC3)cn2)C2CC2)no1 (single isomer, unassigned; epimer a) [Example 68] | – | 0.00395 µM | – | – | > 10 µM
19 | Cc1nc(C(C)(NC(=O)c2cc(O[C@H](C)C(F)(F)F)c(C3CC3)cn2)C2CC2)no1 (single isomer, unassigned; epimer a) [Example 72] | – | 0.0027 µM | – | – | 0.19 µM
20 | Cc1nc(C(C)(NC(=O)c2cc(O[C@@H](C)C(F)(F)F)c(C3CC3)cn2)C2CC2)no1 (single isomer, unassigned; epimer b) [Example 69] | – | 0.00025 µM | – | – | 0.015 µM
